# Assay results published in US10738040B2, “Compounds, compositions, and methods for increasing CFTR activity” (Proteostasis Therapeutics, Inc., priority 2014, dated 2020).
# Marks after values point to notes of the source that are not given here.
# Legend:
# [1] = target: T1, ΔF508-CFTR (Homo sapiens, UniProt P13569, DEL508-508); assay: hBE equivalent current (Ieq) assay; format: cell-based; settings: compound at 10 uM and VX-809 at 1 uM, relative to VX-809 (1 uM); primary lung epithelial cells homozygous for ΔF508, 24 hours treatment; AUC of equivalent chloride current
# T1 construct: Primary lung epithelial cells homozygous for the Cystic Fibrosis-causing ΔF508 mutation were differentiated; endogenous in cells; host or cells: primary human lung (bronchial) epithelial cells homozygous for ΔF508, differentiated at air-liquid interface
# T1 sequence (P13569 with tags, fused parts or gaps DEL508-508): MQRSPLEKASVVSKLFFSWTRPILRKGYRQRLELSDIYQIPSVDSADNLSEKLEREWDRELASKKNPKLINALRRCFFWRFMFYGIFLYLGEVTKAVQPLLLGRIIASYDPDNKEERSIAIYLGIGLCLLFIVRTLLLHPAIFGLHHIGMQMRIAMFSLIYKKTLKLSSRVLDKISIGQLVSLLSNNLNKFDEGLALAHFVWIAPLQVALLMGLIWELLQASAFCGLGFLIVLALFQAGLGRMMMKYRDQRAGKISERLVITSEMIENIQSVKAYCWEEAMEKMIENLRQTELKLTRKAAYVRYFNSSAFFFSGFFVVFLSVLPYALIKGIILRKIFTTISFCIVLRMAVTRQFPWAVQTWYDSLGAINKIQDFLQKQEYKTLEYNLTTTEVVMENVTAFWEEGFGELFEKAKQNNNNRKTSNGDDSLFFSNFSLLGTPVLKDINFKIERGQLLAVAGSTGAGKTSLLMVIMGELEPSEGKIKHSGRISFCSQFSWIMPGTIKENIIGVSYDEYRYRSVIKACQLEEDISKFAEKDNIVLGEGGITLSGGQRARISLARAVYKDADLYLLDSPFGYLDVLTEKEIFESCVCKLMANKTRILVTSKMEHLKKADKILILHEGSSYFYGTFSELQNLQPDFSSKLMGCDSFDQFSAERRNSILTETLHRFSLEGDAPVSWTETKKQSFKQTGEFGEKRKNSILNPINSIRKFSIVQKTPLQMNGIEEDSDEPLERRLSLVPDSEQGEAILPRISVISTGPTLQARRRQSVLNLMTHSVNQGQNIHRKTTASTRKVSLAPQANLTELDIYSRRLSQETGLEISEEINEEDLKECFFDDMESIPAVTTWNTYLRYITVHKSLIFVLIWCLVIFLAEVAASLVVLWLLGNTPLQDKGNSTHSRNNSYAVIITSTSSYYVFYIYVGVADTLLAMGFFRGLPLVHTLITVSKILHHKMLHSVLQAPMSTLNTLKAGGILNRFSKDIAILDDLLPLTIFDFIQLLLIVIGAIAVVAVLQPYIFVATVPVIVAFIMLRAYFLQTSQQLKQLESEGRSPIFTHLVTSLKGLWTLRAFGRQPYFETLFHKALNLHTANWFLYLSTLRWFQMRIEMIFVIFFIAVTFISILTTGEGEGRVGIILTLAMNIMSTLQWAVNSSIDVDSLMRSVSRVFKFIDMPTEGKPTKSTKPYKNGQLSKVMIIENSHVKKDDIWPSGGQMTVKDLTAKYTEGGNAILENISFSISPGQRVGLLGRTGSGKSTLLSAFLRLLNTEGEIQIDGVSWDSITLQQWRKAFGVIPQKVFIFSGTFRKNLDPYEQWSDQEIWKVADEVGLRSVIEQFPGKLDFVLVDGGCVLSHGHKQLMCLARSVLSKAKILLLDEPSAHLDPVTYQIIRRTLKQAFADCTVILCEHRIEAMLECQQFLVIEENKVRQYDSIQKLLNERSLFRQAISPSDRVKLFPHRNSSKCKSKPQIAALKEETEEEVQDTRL
# Procedure: ii. hBE Equivalent Current (Ieq) Assay
# Primary lung epithelial cells homozygous for the Cystic Fibrosis-causing ΔF508 mutation were differentiated for a minimum of 4 weeks in an air-liquid interface on Costar 24 well HTS filter plates prior to the equivalent current (Ieq) measurements. Cells were apically mucus-washed for 30 minutes 24 h prior to treatment with compounds. The basolateral media was removed and replaced with media containing the compound of interest diluted to its final concentration from DMSO stocks. Treated cells were incubated at 37° C. and 5% CO2 for 24 hours. At the end of the treatment period, the media was changed to the Ieq experimental solution for 30 minutes before the experiment and plates are maintained in a CO2-free incubator during this period. The plates containing the cells were then placed in pre-warmed heating blocks at 36° ° C.±0.5 for 15 minutes before measurements are taken. The transepithelial voltage (VT) and conductance (GT) were measured using a custom 24 channel current clamp (TECC-24) with 24 well electrode manifold. The Ieq assay measurements were made following additions with standardized time periods: • 1. The baseline VT and GT values were measured for approximately 20 minutes. • 2. Benzamil was added to block ENaC for 15 minutes. • 3. Forskolin plus VX-770 (ivacaftor) were added to maximally activate ΔF508-CFTR for 27 minutes. • 4. Bumetanide was added to inhibit the NaK2Cl cotransporter and shut-off secretion of chloride.
# The activity data captured was the area under the curve (AUC) for the traces of the equivalent chloride current. The AUC was collected from the time of the forskolin/VX-770 addition until the inhibition by bumetanide addition. Correction in response to compound treatment was scored as the increase in the AUC for compound-treated samples over that of vehicle-treated samples.
# [2] = target: T1, ΔF508-CFTR; assay: Ussing measurements (short-circuit current, CFTRinh-172-inhibitable); format: cell-based; settings: compound at 10 uM and VX-809 at 3 uM, relative to VX-809 (3 uM); hBEs homozygous for ΔF508, 24 hours treatment; CFTRinh-172-inhibitable current
# Procedure: As discussed above, Ussing measurements can be used to measure CFTR activity. In this method, primary lung epithelial cells (hBEs) homozygous for the Cystic Fibrosis-causing ΔF508 mutation were differentiated for a minimum of 4 weeks in an air-liquid interface on SnapWell filter plates prior to the Ussing measurements. Cells were apically mucus-washed for 30 minutes prior to treatment with compounds. The basolateral media was removed and replaced with media containing the compound of interest diluted to its final concentration from DMSO stocks. Treated cells were incubated at 37° C. and 5% CO2 for 24 hours. At the end of the treatment period, the cells on filters were transferred to the Ussing chamber and equilibrated for 30 minutes. The short-circuit current was measured in voltage clamp-mode (Vhold=0 mV), and the entire assay was conducted at a temperature of 36° C.-36.5° C. Once the voltages stabilized, the chambers were clamped, and data was recorded by pulse readings every 5 seconds. Following baseline current stabilization, the following additions were applied and the changes in current and resistance of the cells was monitored: • 1. Benzamil to the apical chamber to inhibit ENaC sodium channel. • 2. Forskolin to both chambers to activate ΔF508-CFTR by phosphorylation. • 3. Genistein to both chambers to potentiate ΔF508-CFTR channel opening. • 4. CFTRinh-172 to the apical chamber to inhibit ΔF508-CFTR Cl— conductance. The inhibitable current (that current that is blocked by CFTRinh-172) is measured as the specific activity of the ΔF508-CFTR channel, and increases in response to compound in this activity over that observed in vehicle-treated samples are identified as the correction of ΔF508-CFTR function imparted by the compound tested.
Compound,Ieq (% VX-809) [1],Ussing (% VX-809) [2]
C[C@H](O)c1nnc([C@H]2C[C@H](NC(=O)c3cc(-c4ccccc4)on3)C2)s1,** (activity ≥200% of VX-809 (1 uM) with compound at 10 uM and VX-809 at 1 uM),## (activity ≥200% of VX-809 (3 uM) with compound at 10 uM and VX-809 at 3 uM)
O=C(NC1CCC(n2nncc2CO)C1)c1cc(-c2ccccc2)on1 (stereo not drawn),–,## (activity ≥200% of VX-809 (3 uM) with compound at 10 uM and VX-809 at 3 uM)
CC(C)O[C@H](C)c1nnc([C@H]2C[C@H](NC(=O)c3cc(-c4ccccc4)on3)C2)o1,–,## (activity ≥200% of VX-809 (3 uM) with compound at 10 uM and VX-809 at 3 uM)
O=C(N[C@H]1C[C@H](c2nnc(CO)s2)C1)c1cc(-c2ccccc2)on1,** (activity ≥200% of VX-809 (1 uM) with compound at 10 uM and VX-809 at 1 uM),## (activity ≥200% of VX-809 (3 uM) with compound at 10 uM and VX-809 at 3 uM)
O=C(N[C@H]1C[C@H](n2nncc2CO)C1)c1cc(-c2ccccc2)on1,++ *,## (activity ≥200% of VX-809 (3 uM) with compound at 10 uM and VX-809 at 3 uM)
O=C(NC1CCC(n2cc(CO)nn2)CC1)c1cc(-c2ccccc2)on1 (stereo not drawn),–,# (activity 100-200% of VX-809 (3 uM) with compound at 10 uM and VX-809 at 3 uM)
C[C@@H](O)c1cn([C@H]2C[C@@H](NC(=O)c3cc(-c4ccccc4)on3)C2)nn1,–,## (activity ≥200% of VX-809 (3 uM) with compound at 10 uM and VX-809 at 3 uM)
C[C@@H](O)c1nnc(C2CC(NC(=O)c3cc(-c4ccccc4)on3)C2)o1 (stereo partly drawn),** (activity ≥200% of VX-809 (1 uM) with compound at 10 uM and VX-809 at 1 uM),## (activity ≥200% of VX-809 (3 uM) with compound at 10 uM and VX-809 at 3 uM)
C[C@H](O)c1nnc([C@H]2C[C@@H](NC(=O)c3cc(-c4ccccc4)on3)C2)s1,** (activity ≥200% of VX-809 (1 uM) with compound at 10 uM and VX-809 at 1 uM),## (activity ≥200% of VX-809 (3 uM) with compound at 10 uM and VX-809 at 3 uM)
O=C(N[C@H]1C[C@H](n2ccnc2)C1)c1cc(-c2ccccc2)on1,–,# (activity 100-200% of VX-809 (3 uM) with compound at 10 uM and VX-809 at 3 uM)
C[C@H](O)c1cnnn1[C@H]1C[C@H](NC(=O)c2cc(-c3ccccc3)on2)C1,** (activity ≥200% of VX-809 (1 uM) with compound at 10 uM and VX-809 at 1 uM),# (activity 100-200% of VX-809 (3 uM) with compound at 10 uM and VX-809 at 3 uM)
O=C(N[C@H]1C[C@H](c2nnc(C3CS(=O)(=O)C3)o2)C1)c1cc(-c2ccccc2)on1,–,## (activity ≥200% of VX-809 (3 uM) with compound at 10 uM and VX-809 at 3 uM)
CN1CC(c2nnc([C@H]3C[C@H](NC(=O)c4cc(-c5ccccc5)on4)C3)o2)C1,–,## (activity ≥200% of VX-809 (3 uM) with compound at 10 uM and VX-809 at 3 uM)
O=C(N[C@H]1C[C@@H](c2nnc(CO)s2)C1)c1cc(-c2ccccc2)on1,–,## (activity ≥200% of VX-809 (3 uM) with compound at 10 uM and VX-809 at 3 uM)
O=C(NC1CCC(n2cc(CO)nn2)C1)c1cc(-c2ccccc2)on1 (stereo not drawn),–,# (activity 100-200% of VX-809 (3 uM) with compound at 10 uM and VX-809 at 3 uM)
O=C(NC1CC(c2nnc(CO)o2)C1)c1cc(-c2ccccc2)on1 (stereo not drawn),–,## (activity ≥200% of VX-809 (3 uM) with compound at 10 uM and VX-809 at 3 uM)
O=C(NC1CCC(n2nncc2CO)CC1)c1cc(-c2ccccc2)on1 (stereo not drawn),–,# (activity 100-200% of VX-809 (3 uM) with compound at 10 uM and VX-809 at 3 uM)

Compound,Ieq (% VX-809) [1],Ussing (% VX-809) [2]
C[C@@H](O)c1nnc(C2CC(NC(=O)c3cc(-c4ccc(F)cc4)on3)C2)o1 (stereo partly drawn),–,## (activity ≥200% of VX-809 (3 uM) with compound at 10 uM and VX-809 at 3 uM)
CCCCNC(=O)OCc1cn([C@H]2C[C@H](NC(=O)c3cc(-c4ccccc4)on3)C2)nn1,–,## (activity ≥200% of VX-809 (3 uM) with compound at 10 uM and VX-809 at 3 uM)
C[C@@H](O)c1nnc(C[C@H]2C[C@H](NC(=O)c3cc(-c4ccccc4)on3)C2)o1,** (activity ≥200% of VX-809 (1 uM) with compound at 10 uM and VX-809 at 1 uM),## (activity ≥200% of VX-809 (3 uM) with compound at 10 uM and VX-809 at 3 uM)
C[C@H](c1nnc([C@H]2C[C@H](NC(=O)c3cc(-c4ccccc4)on3)C2)o1)S(C)(=O)=O,* (activity 100-200% of VX-809 (1 uM) with compound at 10 uM and VX-809 at 1 uM),## (activity ≥200% of VX-809 (3 uM) with compound at 10 uM and VX-809 at 3 uM)
C[C@@H](O)c1cnnn1[C@H]1C[C@H](NC(=O)c2cc(-c3ccccc3)on2)C1,** (activity ≥200% of VX-809 (1 uM) with compound at 10 uM and VX-809 at 1 uM),## (activity ≥200% of VX-809 (3 uM) with compound at 10 uM and VX-809 at 3 uM)
O=C(N[C@H]1C[C@H](n2cc(CO)nn2)C1)c1cc(-c2ccccc2)on1,++ *,## (activity ≥200% of VX-809 (3 uM) with compound at 10 uM and VX-809 at 3 uM)
O=C(N[C@H]1C[C@@H](n2cc(CO)nn2)C1)c1cc(-c2ccccc2)on1,** (activity ≥200% of VX-809 (1 uM) with compound at 10 uM and VX-809 at 1 uM),## (activity ≥200% of VX-809 (3 uM) with compound at 10 uM and VX-809 at 3 uM)
C[C@H](O)c1nnc([C@H]2C[C@@H](NC(=O)c3cc(-c4ccccc4)on3)C2)o1,** (activity ≥200% of VX-809 (1 uM) with compound at 10 uM and VX-809 at 1 uM),## (activity ≥200% of VX-809 (3 uM) with compound at 10 uM and VX-809 at 3 uM)
O=C(N[C@H]1C[C@@H](n2nncc2CO)C1)c1cc(-c2ccccc2)on1,** (activity ≥200% of VX-809 (1 uM) with compound at 10 uM and VX-809 at 1 uM),## (activity ≥200% of VX-809 (3 uM) with compound at 10 uM and VX-809 at 3 uM)
C[C@@H](O)c1nnc([C@H]2C[C@@H](NC(=O)c3cc(-c4ccccc4)on3)C2)s1,** (activity ≥200% of VX-809 (1 uM) with compound at 10 uM and VX-809 at 1 uM),## (activity ≥200% of VX-809 (3 uM) with compound at 10 uM and VX-809 at 3 uM)
C[C@@H](O)c1nnc([C@H]2C[C@H](NC(=O)c3cc(-c4ccccc4)on3)C2)s1,** (activity ≥200% of VX-809 (1 uM) with compound at 10 uM and VX-809 at 1 uM),## (activity ≥200% of VX-809 (3 uM) with compound at 10 uM and VX-809 at 3 uM)
O=C(N[C@H]1C[C@H](c2nnc(C3COC3)o2)C1)c1cc(-c2ccccc2)on1,–,## (activity ≥200% of VX-809 (3 uM) with compound at 10 uM and VX-809 at 3 uM)
O=C(N[C@H]1C[C@H](c2noc(CO)n2)C1)c1cc(-c2ccccc2)on1,** (activity ≥200% of VX-809 (1 uM) with compound at 10 uM and VX-809 at 1 uM),## (activity ≥200% of VX-809 (3 uM) with compound at 10 uM and VX-809 at 3 uM)
C[C@H](O)c1nnc(C[C@H]2C[C@H](NC(=O)c3cc(-c4ccccc4)on3)C2)s1,** (activity ≥200% of VX-809 (1 uM) with compound at 10 uM and VX-809 at 1 uM),## (activity ≥200% of VX-809 (3 uM) with compound at 10 uM and VX-809 at 3 uM)
O=C(N[C@H]1C[C@H](Cc2nnc(CO)s2)C1)c1cc(-c2ccccc2)on1,–,## (activity ≥200% of VX-809 (3 uM) with compound at 10 uM and VX-809 at 3 uM)
C[C@@H](O)c1cnnn1[C@H]1C[C@@H](NC(=O)c2cc(-c3ccccc3)on2)C1,–,## (activity ≥200% of VX-809 (3 uM) with compound at 10 uM and VX-809 at 3 uM)
O=C(NC1CCC(c2nnc(CO)o2)C1)c1cc(-c2ccccc2)on1 (stereo not drawn),–,# (activity 100-200% of VX-809 (3 uM) with compound at 10 uM and VX-809 at 3 uM)
